Reference: patent US9346820B2, “HIV-1 protease inhibitors having gem-di-fluoro bicyclic P2-ligands” (priority 2013, dated 2016)
pEC50: −log10 of the molar value. Where “and” joins values, the source holds several entries; their conditions need not be identical. Identical values can stand only once. Like-named read-outs stand apart in the source and are kept apart here.

Key:
HIV-1MDR/TM = experiment: microbe, parasite or virus in culture; type: cell-based; settings: for pEC50: Human immunodeficiency virus 1, read-out: EC50 HIV-1MDR/TM (X4); for fold change of EC50 HIV-1MDR/TM vs HIV-1ERS104pre: number in parentheses
Description: (§1) All primary HIV-1 strains were passaged once or twice in 3-day-old phytohemagglutinin activated peripheral blood mononuclear cells (PHA-PBM), and the culture supernatants were stored at −80° C. until use.
(§2) The susceptibility of HIV-1LAI to various drugs was determined as previously described with minor modifications. Briefly, MT-2 cells (10^4/ml) were exposed to 100 50% tissue culture infectious doses (TCID50) of HIV-1LAI in the presence or absence of various concentrations of drugs in 96-well microculture plates and were incubated at 37° C. for 7 days. After 100 μl of the medium was removed from each well, 3-(4,5-dimetylthiazol-2-yl)-2,5-diphenyltetrazolium bromide (MTT) solution (10 μl, 7.5 mg/ml in phosphate-buffered saline) was added to each well in the plate, followed by incubation at 37° C. for 2 h. […] All assays were performed in duplicate or triplicate. […] To determine the sensitivity of primary HIV-1 isolates to drugs, phytohemagglutinin-stimulated peripheral blood mononuclear cells (PHA-PBMC) (10^6/ml) were exposed to 50 TCID50 of each primary HIV-1 isolate and cultured in the presence or absence of various concentrations of drugs in 10-fold serial dilutions in 96-well microculture plates. In determining the drug susceptibility of certain laboratory HIV-1 strains, MT-4 cells were employed as target cells as previously described with minor modifications. In brief, MT-4 cells (10^5/ml) were exposed to 100 TCID50 of drug-resistant HIV-1 strains in the presence or absence of various concentrations of drugs and were incubated at 37° C. On day 7 of culture, the supernatants were harvested and the amounts of p24 Gag protein were determined by using a fully automated chemiluminescent enzyme immunoassay system (Lumipulse F: Fujirebio Inc., Tokyo). […] All assays were performed in duplicate or triplicate. PHA-PBMs were derived from a single donor in each independent experiment. Thus, for obtaining the data, three different donors were recruited.

HIV-1MDR/G = experiment: microbe, parasite or virus in culture; type: cell-based; settings: for pEC50: Human immunodeficiency virus 1, read-out: EC50 HIV-1MDR/G (X4); for fold change of EC50 HIV-1MDR/G vs HIV-1ERS104pre: number in parentheses
Description: as §1, §2

HIV-1MDR/C = experiment: microbe, parasite or virus in culture; type: cell-based; settings: for pEC50: Human immunodeficiency virus 1, read-out: EC50 HIV-1MDR/C (X4); for fold change of EC50 HIV-1MDR/C vs HIV-1ERS104pre: number in parentheses
Description: as §1, §2

in vitro = settings: rat and monkey
Description: The BBB Kit™ was kept at −80° C. until thawing on day 0 of the experiments. Nutritional medium was added to both brain and blood sides of the wells. This solution consists of DMEM F-12 medium with FCS 10% v/v, heparin 100 μg/ml, basic fibroblast growth factor (bFGF) 1.5 ng/ml, insulin 5 μg/ml, transferrin 5 μg/ml, sodium selenite 5 ng/ml, hydrocortisone 500 nM and gentamycin 50 μg/ml. Fresh medium was added 3 hours after thawing following the manufacturer's instructions, and 24 hours later. The plates were incubated at 37° C. until day 4 of the experiment when the condition of astrocytes was checked under a light microscope. Following this, the integrity of the collagen-coated membrane was verified by the measurement of the transendothelial electrical resistance (TEER) using an ohmmeter provided by the manufacturer. […] Detailed information regarding the components of the BBB Kit as well as its mechanisms can be seen by accessing the manufacturer's website http://www.pharmacocell.co.jp/en/bbb/index_e.html.
Standard curves were generated for each compound on a light spectrophotometer as previously described. 100 μM of each compound was added to the luminal (blood side) of the wells, incubated at 37° C. for 30 minutes and then, the amount of drug that crossed the in vitro BBB was collected and measured under a light spectrophotometer at 230 nanometer absorbances.
Papp was calculated using the following mathematical formula: […]
This model (BBB Kit™) is thought to represent an in vitro BBB model for drug transport assays, permitting an adequate cross-talk of the cell lines involved and provide a way to test an apparent passage of small molecules across the BBB as previously described by Nakagawa et al. (41). […] The concentrations of each compound that permeated into the abluminal interface (termed “brain side”) were determined using a spectrophotometer, 30 min after the addition of each drug to the wells.
The mathematical formula used for the calculation of Papp is described in Materials and Methods.

[1] = Partition and distribution coefficients, shake-flask method; type: physicochemical; settings: for Concentration in octanol^(b): n-octanol used for logD assay; for Concentration in octanol^(a): n-octanol used for logPOW determination; for Log DOct/Tris pH 7.40: pH 7.4; for Concentration in tris buffer / Concentration in water: shake flask, 100 μM, 230 nm
Description: On day −1 of the experimental setting, saturation of 1-octanol (CH3 (CH2)6CH2OH) (Nacalai Tesque, Kyoto, Japan) water and tris-buffered saline (10X working solution 20 mM Tris, pH 7.4 and 0.9% NaCl, Sigma-Aldrich, St. Louis, Mo.) took place. Four different flasks were used: One containing 50 ml of water plus 100 ml of 1-octanol, the second flask contained 1-octanol saturated with water adding 50 ml of 1-octanol and 100 ml of water. The same ratios and volumes were kept for 1-octanol saturated with tris-buffer and tris-buffer saturated with 1-octanol. The flasks were sealed and placed into a room temperature bio shaker for 24 hours at 90 revolutions per minute. […] Successive dilutions were made to obtain concentrations of 10 μM, 1 μM and 0.1 μM. A standard curve was generated on a light spectrophotometer (DU Series 700, Beckman Coulter Fullerton, Calif.) at 230 nanometer absorbances.
On day 1 of the experiment, the lipid and liquid interfaces were separated, and compounds were diluted again from 20 mM DMSO to 100 μM using the 1-octanol, water and Tris-buffered saline obtained from the shake-flask assay. The resulting diluted compounds were then added to separate serum tubes containing equal proportions of 1-octanol and water, and 1-octanol and Tris-buffered saline. The solution was handshaken for 5 minutes and then centrifuged at 3,500 rpm and room temperature for 20 minutes. Finally, the compounds were recovered from the 1-octanol, Tris-buffer and water interfaces and then measured on a light spectrophotometer.
The values for logP and logD were obtained by applying the following mathematical formulas: […]
The addition of fluorine atoms is generally expected to confer greater lipophilicity on nucleoside analogs and certain compounds (37-39). […] 1-Octanol, organic alcohol, and water were used for logP determination, while tris-buffered saline (pH 7.4) and water were utilized for logD determination. Prior to obtaining the actual values, a standard curve was generated as a reference and drug concentrations attained for each compartment (1-octanol, water and tris-buffered saline) were measured on a light spectrophotometer (at 230 nanometer absorbance) as previously described by Rak et al. (40).
DRV was used as a control. N-octanol, an organic alcohol, and water were used for logP determination, while tris buffer and water were utilized for the logD assay. Prior to the retrieval of actual values a standard curve was generated as a reference. The drug concentrations for each compartment (octanol, water and tris buffer) were measured at 230 nanometer absorbances using a light spectrophotometer. Assay was performed following the OECD guidelines for testing of chemicals “Partition coefficient (n-octanol-water): shake flask method”, adopted by the council on 27 Jul. 1995.^(a) n-octanol used for logPOW determination;^(b) n-octanol used for logD assay. The formulas

| Structure (SMILES) | pEC50 (HIV-1MDR/TM) | fold change of EC50 HIV-1MDR/TM vs HIV-1ERS104pre (HIV-1MDR/TM) | pEC50 (HIV-1MDR/G) | fold change of EC50 HIV-1MDR/G vs HIV-1ERS104pre (HIV-1MDR/G) | pEC50 (HIV-1MDR/C) | fold change of EC50 HIV-1MDR/C vs HIV-1ERS104pre (HIV-1MDR/C) | Papp at 30 min, 100 μM (in vitro; Papp) | Log POW (Octanol/Water) ([1]; shake flask method) | Papp at 30 min, 100 μM (in vitro) | Log POW (Octanol/Water) [1] | Concentration in octanol^(b) [1] | Concentration in octanol^(a) [1] | Log DOct/Tris pH 7.40 [1] | Concentration in tris buffer [1] | Concentration in water [1] |
| --- | --- | --- | --- | --- | --- | --- | --- | --- | --- | --- | --- | --- | --- | --- | --- |
| COC(=O)N[C@H](C(=O)N[C@@H](Cc1ccccc1)[C@@H](O)CN(Cc1ccc(-c2ccccn2)cc1)NC(=O)[C@@H](NC(=O)OC)C(C)(C)C)C(C)(C)C [ATV, Atazanavir] | 7.25 | 24 fold | 7.38 | 19 fold | 6.37 | 204 fold | 15.4 ×10⁻⁶ cm/s | – | – | – | – | – | – | – | – |
| CC(C)CN(C[C@@H](O)[C@H](Cc1ccccc1)NC(=O)O[C@H]1CO[C@H]2OCC[C@H]21)S(=O)(=O)c1ccc(N)cc1 [DRV, darunavir] | 7.52 | – | 7.85 | – | 8.30 | – | – | −0.63 | 9.9 ×10⁻⁶ cm/s | – | – | – | – | – | – |
| COc1ccc(S(=O)(=O)N(CC(C)C)C[C@@H](O)[C@H](Cc2ccccc2)NC(=O)OC2CO[C@H]3OCC(F)(F)[C@@H]23)cc1 (stereo partly drawn) [GRL-04810] | 8.40 | 2 fold | 8.40 | 2 fold | 8.70 | 1 fold | 47.8 ×10⁻⁶ cm/s | – | – | −0.14 | 72 µM and 72.00 µM | 70.00 µM | −0.29 | 42.32 µM | 99.78 µM |
| CC(C)CN(C[C@@H](O)[C@H](Cc1ccccc1)NC(=O)O[C@H]1CO[C@H]2OCC(F)(F)[C@H]21)S(=O)(=O)c1ccc(N)cc1 [GRL-05010] | 8.40 | 2 fold | 8.40 | 1 fold | 8.70 | 1 fold | 61.8 ×10⁻⁶ cm/s | – | – | −0.83 | 14.09 µM | 18.70 µM | −1.01 | 49.84 µM | 94.55 µM |
| CC(C)(C)NC(=O)[C@@H]1C[C@@H]2CCCC[C@@H]2CN1C[C@@H](O)[C@H](Cc1ccccc1)NC(=O)[C@H](CC(N)=O)NC(=O)c1ccc2ccccc2n1 [SQV, Saquinavir] | 7.00 | 25 fold | 7.41 | 10 fold | 6.51 | 78 fold | 4.9 ×10⁻⁶ cm/s | – | – | – | – | – | – | – | – |
